Results on 5 molecules are retold here after US20210122763A1, “OGA INHIBITOR COMPOUNDS” (Janssen Pharmaceutica NV, priority 2018, published 2021).

By Emax is commonly meant the size of the effect at its maximum, as opposed to the concentration needed. The melting point is the temperature of the solid-liquid transition.

Data set [1] addresses T1, recombinant human Meningioma Expressed Antigen 5 (MGEA5), also referred to as O-GlcNAcase (OGA) (Homo sapiens, UniProt O60502).
T1 construct: Full length OGA enzyme was purchased at OriGene (cat #TP322411); purchased OriGene TP322411
T1 sequence (O60502 1-916): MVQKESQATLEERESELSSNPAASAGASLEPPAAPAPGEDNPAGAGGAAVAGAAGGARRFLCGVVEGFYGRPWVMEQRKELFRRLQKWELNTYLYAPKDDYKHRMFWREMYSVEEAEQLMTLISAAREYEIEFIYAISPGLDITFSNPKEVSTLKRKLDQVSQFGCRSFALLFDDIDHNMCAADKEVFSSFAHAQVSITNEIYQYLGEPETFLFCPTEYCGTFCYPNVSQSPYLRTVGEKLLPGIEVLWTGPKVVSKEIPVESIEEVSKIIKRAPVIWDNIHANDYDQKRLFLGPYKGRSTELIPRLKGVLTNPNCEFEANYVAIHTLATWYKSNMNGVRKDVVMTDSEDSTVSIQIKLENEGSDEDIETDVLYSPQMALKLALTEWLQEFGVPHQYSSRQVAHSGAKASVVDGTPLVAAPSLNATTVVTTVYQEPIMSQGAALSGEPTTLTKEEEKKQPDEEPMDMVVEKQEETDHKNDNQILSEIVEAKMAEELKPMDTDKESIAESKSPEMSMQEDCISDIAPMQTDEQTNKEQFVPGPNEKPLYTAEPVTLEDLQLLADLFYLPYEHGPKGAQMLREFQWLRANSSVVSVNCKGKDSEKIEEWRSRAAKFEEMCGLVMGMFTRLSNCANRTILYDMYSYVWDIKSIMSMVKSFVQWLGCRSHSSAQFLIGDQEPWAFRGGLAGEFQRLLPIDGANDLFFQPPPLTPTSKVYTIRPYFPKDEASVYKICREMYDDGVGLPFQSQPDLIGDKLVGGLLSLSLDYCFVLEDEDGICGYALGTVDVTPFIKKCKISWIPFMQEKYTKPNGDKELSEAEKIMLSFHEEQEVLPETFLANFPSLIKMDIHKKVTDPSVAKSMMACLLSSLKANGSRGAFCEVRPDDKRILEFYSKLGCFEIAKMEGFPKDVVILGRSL
As to the kind of experiment: OGA biochemical assay (inhibition of FM-GlcNAc hydrolysis, fluorescence). Particulars: for Emax: read-out: Enzymatic Emax (%); for IC50: read-out: Enzymatic hOGA, pIC50 (converted). The method, boiled down:
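Full-length OGA at 2 nM was pre-incubated 60 min at room temperature with compound, then FM-GlcNAc at 100 uM final was added in citrate/phosphate buffer pH 7.2 with 0.005% Tween-20. After 6 h at room temperature, carbonate pH 11.0 stopped the reaction. Fluorescence read at 485/538 nm; IC50 and Hill coefficient from curve fit against no-inhibitor and saturating-standard controls.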

A further data set deals with T2, OGA (Homo sapiens, UniProt O60502).
T2 construct: HEK293 cells inducible for P301L mutant human Tau (isoform 2N4R) were established at Janssen; endogenous in cells; host or cells: HEK293 cells inducible for P301L mutant human Tau (2N4R)
T2 sequence (O60502 1-916): T1 sequence (O60502 1-916)
Nature of the data set: OGA cellular assay (ICC detection of O-GlcNAcylated proteins in HEK293 cells inducible for P301L mutant human Tau). Format: cell-based. Particulars: 6 hours incubation; for Emax: HEK293, HEK293 cells inducible for P301L mutant human Tau, maximum = Thiamet G 200 uM; for EC50: HEK293 cells inducible for P301L mutant human Tau, read-out: Cellular hOGA, pEC50 (converted). The gist of the method:
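HEK293 cells with inducible P301L 2N4R Tau, seeded in low-glucose medium, were exposed to compounds for 6 hours (0.2% DMSO), then PFA-fixed and stained with CTD110.6. Imaging intensity at 488 nm measured O-GlcNAcylation, with Hoechst nuclei counts for toxicity. IC50s came from non-linear regression, with Thiamet G at 200 uM as maximum inhibition.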

Molecules are shown by their SMILES.

Take `CC(c1ccc2c(n1)OCCO2)N1CCC(Oc2ccc(C#N)nc2)CC1` (stereo not shown) [Compound 150]: the melting point came to 133 °C. Also, in data set [1], the Emax is 95% and the IC50 is 79.4 nM. In addition, on OGA, the maximum response (Emax) was determined as 57% and the EC50 is 398 nM.
In turn, `Cc1cc(CC2CCN(C(C)c3ccc4c(n3)OCCO4)CC2)cc(C)n1` (stereo not shown) [Compound 140] had a melting point of 144.6 °C. In data set [1], the Emax was 98% and the IC50 is 398 nM. For the same molecule, at OGA, the Emax turned out to be 64% and the EC50 is 251 nM.
For `Cc1ncc(OC2CCN(C(C)c3ccc4c(n3)OCCC4)CC2)cn1.Cl` (stereo not shown) [Compound 139], the melting point was 208.1 °C. Besides, in data set [1], the Emax was determined as 95% and the IC50 was 200 nM. Moreover, on OGA, the Emax was found to be 31% and the EC50 was above 1000 nM.
`Cc1cc(OC2CCN([C@H](C)c3nc4c(cc3F)CCO4)CC2)cc(C)n1` (single isomer, unassigned) [Compound 143]: the melting point is 105.3 °C. In data set [1], the Emax came to 99% and the IC50 is 5.01 nM. Besides, at OGA, the Emax came out at 100% and the EC50 was 17.4 nM.
Taken in the same sequence, the figures for `Cc1ncc(OC2CCN(C(C)c3ccc4c(c3)OCO4)CC2)cn1.Cl` (stereo not shown) [Compound 30] were 213.2 °C, 100%, 794 nM, 15% and above 1000 nM.
